Results as given in patent publication US6855728B2, “Small-molecule modulators of hepatocyte growth factor / scatter factor activities” (North Shore-Long Island Jewish Health System, priority 2001, dated 2005).

Tests used:
[1] = tested on: Endothelial cells (HUVECs); assay: Endothelial cell (HUVEC) proliferation assay, 3H thymidine incorporation, compound without added growth factor; assay type: cell-based, human; settings: without HGF/SF; for Activity at 6 microgram/ml Without HGF/SF (result in words) / inhibition at 6 µg/mL: 6 microgram/ml; for Activity at 2 microgram/ml Without HGF/SF: stimulation: stimulation of HUVEC proliferation; for Stimulation at 6-12 micrograms/ml Without HGF/SF: stimulation of endothelial cell proliferation
Procedure: Cell proliferation assays Endothelial cells (HUVECs) were seeded in 48 well plates at a density of 10,000 to 20,000 cells per well in the normal growth medium (EGM-2-Clonetics) containing 2% fetal bovine serum, FGF, VEGF, IGF, ascorbic acid, EGF, GA, heparin and hydrocortisone. The cells were grown normally in the growth medium for 24 hr at 37 degrees C. and 5% CO2. The cells were then rinsed with RPMI-1% BSA and starved for 1-2 hrs. The stock solutions of all the compounds were made at a concentration of 10 mg/ml in DMSO and diluted in RPMI-1% BSA at a final concentrations of 1 to 12 microgram/ml. The cells were then washed and treated with the compounds and incubated for another 24 hr at 37 degrees C. Then ^3H thymidine (0.5 microgram/ml in RPMI-BSA) was added to the cells and incubated at 37 degrees C. for 4 to 5 hours. The unincorporated thymidine was removed by washing the cells four times with 1× PBS. Then the cells were lysed with 0.5M NaOH for 30 min and the radioactivity counted in the beta counter. […]

[2] = tested on: HGF/SF induced proliferation of HUVEC; assay: Endothelial cell (HUVEC) proliferation assay in the presence of exogenously-added HGF/SF; assay type: cell-based, human; settings: with HGF/SF; for inhibition at 6 µg/mL / Activity at 6 microgram/ml With HGF/SF (result in words): 6 microgram/ml; for inhibition at 6 µg/mL / inhibition at 2 µg/mL: inhibition of HUVEC proliferation; for inhibition at 6 µg/mL: read-out: Activity at 6 microgram/ml With HGF/SF: inhibition (blocked SF); for inhibition at 2 µg/mL: read-out: Activity at 2 microgram/ml With HGF/SF: inhibition (blocked SF); for Stimulation at 6-12 micrograms/ml With: stimulation of endothelial cell proliferation
Description: To evaluate inhibitors of activity, compounds may be evaluated directly for anti-proliferative activities, such as the inhibition of cellular proliferation, inhibition of tumor growth, inhibition of scatter, and inhibition of gene expression, and may also be evaluated on their ability to inhibit activity when exposed to cells together with. In such instances, the scatter and/or proliferative activities induced by added will be inhibited by the attendant presence of an inhibitory compound of the invention.
Cell proliferation assays Endothelial cells (HUVECs) were seeded in 48 well plates at a density of 10,000 to 20,000 cells per well in the normal growth medium (EGM-2-Clonetics) containing 2% fetal bovine serum, FGF, VEGF, IGF, ascorbic acid, EGF, GA, heparin and hydrocortisone. The cells were grown normally in the growth medium for 24 hr at 37 degrees C. and 5% CO2. The cells were then rinsed with RPMI-1% BSA and starved for 1-2 hrs. The stock solutions of all the compounds were made at a concentration of 10 mg/ml in DMSO and diluted in RPMI-1% BSA at a final concentrations of 1 to 12 microgram/ml. The cells were then washed and treated with the compounds and incubated for another 24 hr at 37 degrees C. Then ^3H thymidine (0.5 microgram/ml in RPMI-BSA) was added to the cells and incubated at 37 degrees C. for 4 to 5 hours. The unincorporated thymidine was removed by washing the cells four times with 1× PBS. Then the cells were lysed with 0.5M NaOH for 30 min and the radioactivity counted in the beta counter.

[3] = Homo sapiens, inhibition of HUVEC proliferation
[4] = 6-12 micrograms/ml, inhibition of endothelial cell proliferation

Row | Structure (SMILES) | Activity at 2 microgram/ml Without HGF/SF (result in words) ([1]; 2 microgram/ml) | Activity at 6 microgram/ml Without HGF/SF (result in words) [1] | Activity at 2 microgram/ml With HGF/SF (result in words) ([2]; 2 microgram/ml) | inhibition at 6 µg/mL ([2]; Homo sapiens) [%] | also measured
1 | CCOC(CC(=O)NNC(=O)c1c(-c2c(Cl)cccc2Cl)noc1C)OCC [N′4-(3,3-diethoxypropanoyl)-3-(2,6-dichlorophenyl)-5-methylisoxazole-4-carbohydrazide] | No effect | No effect | No effect | 35 | 
2 | Cc1onc(-c2c(Cl)cccc2Cl)c1C(=O)NNC(=S)Oc1ccccc1[N+](=O)[O-] [2-nitrophenyl 2-((3-(2,6-dichlorophenyl)-5-methylisoxazol-4-yl)carbonyl)hydrazine-1-carbothioate] | No effect |  | No effect | 80 | inhibition at 6 µg/mL [1, 3]: 80%
3 | Cc1ccc(N=Cc2ccco2)c(C)c1 [N-(furfurylidene)-2,4-xylidine] |  |  |  |  | Inhibition at 6-12 micrograms/ml Without HGF/SF [1, 4]: 30-40% inhibition; Inhibition at 6-12 micrograms/ml With [2, 4]: 50-60% inhibition
4 | Cc1cc(C)cc(Sc2ccc3nnc(-c4ccccc4)n3n2)c1 [6-(3,5-Dimethylphenyl) Thio)-3-Phenyl (1,2,4-Triazolo(4,3-b)pyridazine] |  |  |  |  | Activity at 1 ug/ml concentration Without HGF/SF (result in words) [1]: no significant effect; inhibition at 1 µg/mL ([2]; Homo sapiens, HUVEC, 1 ug/ml, inhibition of endothelial cell proliferation, read-out: Activity at 1 ug/ml concentration With HGF/SF: inhibition): 30%
5 | CC(C)(C)c1n[nH]c(C(C)(C)C)c1Cc1c(F)cccc1Cl [3,5-di(tert-butyl)-4-(2-chloro-6-fluorobenzyl)-1H-pyrazole] |  | No effect |  | 50 | Activity at 2 microgram/ml Without HGF/SF: stimulation ([1]; 2 microgram/ml): 51%; inhibition at 2 µg/mL ([2]; Homo sapiens, 2 microgram/ml): 25%
6 | Cc1n[nH]c(C)c1Cc1c(F)cccc1Cl [4-(2-chloro-6-fluorobenzyl)-3,5-dimethyl-1H-pyrazole] |  | No effect | No effect |  | Activity at 2 microgram/ml Without HGF/SF: stimulation ([1]; 2 microgram/ml): 54%; Activity at 6 microgram/ml With HGF/SF (result in words) [2]: No effect
7 | Cc1onc(-c2c(Cl)cccc2Cl)c1C(=O)NNC(=O)CON=Cc1ccc(Cl)cc1Cl [N′4-(2-(((2,4-dichlorobenzylidene)amino)oxy)acetyl)-3-(2,6-dichlorophenyl)-5-methylisoxazole-4-carbohydrazide] |  | No effect |  |  | Activity at 2 microgram/ml Without HGF/SF: stimulation ([1]; 2 microgram/ml): 32%; Activity at 2 microgram/ml With HGF/SF: stimulation ([2]; 2 microgram/ml, stimulation of HUVEC proliferation): 30%; Activity at 6 microgram/ml With HGF/SF (result in words) [2]: No effect
8 | CSC(=NS(=O)(=O)c1ccccc1)NNC(=O)c1c(-c2c(Cl)cccc2Cl)noc1C [N1-((2-((3-(2,6-dichlorophenyl)-5-methylisoxazol-4-yl)carbonyl)hydrazino)(methylthio)methylidene)benzene-1-sulfonamide] | No effect | No effect | No effect | 25 | 
9 | C[Si](C)(C)c1cccc(-c2ccccc2)c1 [(3-Biphenyl) Trimethyl silane] |  |  |  |  | Stimulation at 6-12 micrograms/ml Without HGF/SF ([1]; 6-12 micrograms/ml): 40% stimulation; Stimulation/Inhibition at 6-12 micrograms/ml With (result in words) ([2]; 6-12 micrograms/ml): No effect
10 | c1ccc(-c2cc(-c3ccccc3)cc(-c3ccccc3)c2)cc1 [1,3,5-triphenylbenzene] |  |  |  |  | Stimulation at 6-12 micrograms/ml Without HGF/SF ([1]; 6-12 micrograms/ml): 40-60% stimulation; Stimulation at 6-12 micrograms/ml With ([2]; 6-12 micrograms/ml): two fold stimulation
11 | C(=C1CCCc2c(-c3ccccc3)cc(-c3ccccc3)pc21)c1ccccc1 (stereo not shown) [8-Benzyledene-2,4 Diphenyl-5,6,7,8 Tetrahydrophosphinoline] |  |  |  |  | Activity at 1 ug/ml concentration Without HGF/SF (result in words) [1]: no significant effect; Activity at 1 ug/ml concentration With HGF/SF: inhibition ([2]; 1 ug/ml, inhibition of endothelial cell proliferation): 40% inhibition
12 | Cc1nn(C(=O)c2c(Cl)cccc2Cl)c(C)c1Cc1c(F)cccc1Cl [(4-(2-chloro-6-fluorobenzyl)-3,5-dimethyl-1H-pyrazole-1-yl)(2,6-dichlorophenyl)methanone] | not significant | not significant |  | 90 | inhibition at 2 µg/mL ([2]; Homo sapiens, 2 microgram/ml): 23%
13 | Cc1onc(-c2c(Cl)cccc2Cl)c1C(=O)NN(C)c1ccc([N+](=O)[O-])cn1 [N′4,5-dimethyl-N′4-(5-nitro-2-pyridyl)-3-(2,6-dichlorophenyl)isoxazole-4-carbohydrazide] | No effect | No effect | No effect | 43 | 
14 | Cc1nn(C(=O)c2cccs2)c(C)c1Cc1c(F)cccc1Cl [(4-(2-chloro-6-fluorobenzyl)-3,5-dimethyl-1H-pyrazole-1-yl)(2-thienyl)methanone] | No effect | No effect | No effect | 61 | 
15 | c1ccc(-c2cc(-c3ccccc3)c(-c3ccccc3)c(-c3ccccc3)c2-c2ccccc2)cc1 [pentaphenylbenzene] |  |  |  |  | Stimulation at 6-12 micrograms/ml Without HGF/SF ([1]; 6-12 micrograms/ml): two to three fold stimulation; Inhibition at 6-12 micrograms/ml With [2, 4]: 50% inhibition
16 | CC(=O)C1=C(C)C[C@H]2[C@@H]3CC=C4C[C@@H](O)CC[C@]4(C)[C@H]3CC[C@]12C [16 methyl-16 Dehydropregnenolone] |  |  |  |  | Stimulation/Inhibition at 6-12 micrograms/ml Without HGF/SF (result in words) ([1]; 6-12 micrograms/ml): No effect; Stimulation at 6-12 micrograms/ml With ([2]; 6-12 micrograms/ml): 30% stimulation
17 | Cc1onc(-c2c(Cl)cccc2Cl)c1C(=O)NN(C)C [N′4,N′4,5-trimethyl-3-(2,6-dichlorophenyl)isoxazole-4-carbohydrazide] | No effect | No effect | No effect | 40 | 
18 | Cc1onc(-c2c(Cl)cccc2Cl)c1C(=O)NNc1ccccc1 [N′4-phenyl-3-(2,6-dichlorophenyl)-5-methylisoxazole-4-carbohydrazide] | No effect | No effect |  | 80 | inhibition at 2 µg/mL ([2]; Homo sapiens, 2 microgram/ml): 40%
19 | Cc1onc(-c2c(Cl)cccc2Cl)c1C(=O)NNc1c(Cl)cncc1Cl [N′4-(3,5-dichloro-4-pyridyl)-3-(2,6-dichlorophenyl)-5-methylisoxazole-4-carbohydrazide] | No effect | No effect |  | 25 | inhibition at 2 µg/mL ([2]; Homo sapiens, 2 microgram/ml): 25%
20 | C1=C(c2ccccc2)c2ccccc2C1(c1ccccc1)c1ccccc1 [1,1,3-triphenylinedene] |  |  |  |  | Stimulation at 6-12 micrograms/ml Without HGF/SF ([1]; 6-12 micrograms/ml): 50-100% stimulation; Stimulation at 6-12 micrograms/ml With ([2]; 6-12 micrograms/ml): 30-40% stimulation
21 | Cc1onc(-c2c(Cl)cccc2Cl)c1C(=O)NNc1cccc(C(F)(F)F)n1 [N′4-(6-(trifluoromethyl)-2-pyridyl)-3-(2,6-dichlorophenyl)-5-methylisoxazole-4-carbohydrazide] |  |  |  | 80 | inhibition at 2 µg/mL ([1]; Homo sapiens, 2 microgram/ml, inhibition of HUVEC proliferation): 40%; inhibition at 6 µg/mL [1, 3]: 50%; inhibition at 2 µg/mL ([2]; Homo sapiens, 2 microgram/ml): 50%
22 | C(=C1c2ccccc2-c2ccccc2-c2ccccc21)c1ccc(-c2ccccc2)cc1 [9-biphenyl-4-ylmethylene-9H-tri-benzo(A,C,E)-cycloheptene] |  |  |  |  | Stimulation at 6-12 micrograms/ml Without HGF/SF ([1]; 6-12 micrograms/ml): 30-40% stimulation; Stimulation at 6-12 micrograms/ml With ([2]; 6-12 micrograms/ml): 20-30% stimulation
